Test results taken from article PMC10245392, “Fed- and Fasted-State Performance of Pretomanid Amorphous Solid Dispersions Formulated with an Enteric Polymer” (Molecular Pharmaceutics, 2023).
In brackets after ≈: the same amount, converted by molar mass. Several values for one entry are separate records, joined by “and”; a condition that tells them apart may be missing. Equal entries are not always repeated. Where two headings read alike, the source gives them in different places.

Legend:
[1] = the highest pKa value at 25 °C; ref 42 and references of Table S2; cited from earlier work
[2] = guinea pig, in vivo; cited from earlier work
[3] = rats, PTM with hydroxypropyl-β-cyclodextrin; cited from earlier work
[4] = humans, 200 mg PTM with high-calorie, high-fat meal; cited from earlier work
[5] = monkeys, PTM suspension in 0.5% sodium carboxymethyl cellulose; cited from earlier work
[6] = Glass transition temperature by DSC; format: physicochemical; conditions: for reduced glass transition temperature (Tg/Tm): calculated as Tg/Tm
Protocol: The glass transition temperature (Tg) of ASD samples was measured by a TA Q2000 differential scanning calorimeter (DSC) equipped with an RCS90 refrigeration unit (TA Instruments, New Castle, DE). The temperature calibration was performed using indium and tin, while enthalpy calibration was conducted with indium. The samples (5–10 mg) were added to aluminum pans with a pinhole lid (Tzero pan, TA Instrument, DE). The sample was equilibrated at −20 °C and heated from −20 to 210 °C at 5 °C/min then cooled back down to −20 °C at 10 °C/min under a nitrogen flow of 50 mL/min. The heating and cooling cycle was repeated three times to remove residual solvent and thermal history, and the last cycle was used for analysis.

[7] = Drug nucleation induction time (UV extinction at 440 nm); format: physicochemical; conditions: for induction time at 160 μg/mL: no polymer, 37 °C
physchem [8] = assay: physchem
physchem [9] = conditions: kinetic from dmso stock
[10] = cited from earlier work
[11] = not given; remark: listed apart in the source

Compound: CN(C)CCO [2-Dimethylaminoethanol]
- pKa [1]: 9.23

Compound: O=[N+]([O-])c1cn2c(n1)OC[C@@H](OCc1ccc(OC(F)(F)F)cc1)C2 [PTM, Pretomanid]
- systemic exposure [2]: 6.7–13.5%
- mean oral bioavailability [3]: 52%
- increase in AUC0-inf with food [4]: 88%
- increase in Cmax with food [4]: 76%
- mean oral bioavailability [5]: 19%
- reduced glass transition temperature (Tg/Tm) [6]: 0.67
- Tg (glass transition temperature) ([6]; neat drug): 10 °C
- induction time [7]: 77.6 ± 13.6 min and ~77 min
- induction time at 160 μg/mL ([7]; FaSSIF V1 (pH 6.5)): 0.9 ± 0.3 min
- induction time at 160 μg/mL ([7]; HCl solution (pH 1.6)): 1.6 ± 0.2 min
- induction time ([7]; PTM 80 μg/mL, PB (pH 6.5), 100 μg/mL HPMC): ~22 min
- nucleation induction time in solution ([7]; media of Table 2, no polymer): less than 2 min
- induction time (no crystallization observed up to) ([7]; pH 6.5): > 1000 min
- induction time at 160 μg/mL ([7]; phosphate buffer (pH 3.0)): 1.3 ± 0.1 min
- induction time at 160 μg/mL ([7]; phosphate buffer (pH 5.0)): 1.6 ± 0.2 min
- induction time at 160 μg/mL ([7]; phosphate buffer (pH 6.5)): 1.4 ± 0.2 min
- solubility thermodynamic (physchem [8]): 15 to 18 µg/mL (≈ 41.8 to 50.1 µM)
- solubility (physchem [8]; 37 °C, pH 1.6, simulated gastric fluid, thermodynamic from solid): 15.2 ± 1.4 µg/mL (≈ 42.3 µM)
- solubility (physchem [8]; 37 °C, pH 3, aqueous buffer, thermodynamic from solid): 17.8 ± 0.3 µg/mL (≈ 49.5 µM)
- solubility (physchem [8]; 37 °C, pH 5, aqueous buffer, thermodynamic from solid): 16.8 ± 0.1 µg/mL (≈ 46.8 µM)
- solubility (physchem [8]; 37 °C, pH 5.8, aqueous buffer, thermodynamic from solid): 17 ± 0.3 µg/mL (≈ 47.3 µM)
- solubility (physchem [8]; 37 °C, pH 5.8, fessif, thermodynamic from solid): 108.1 ± 0.1 µg/mL (≈ 301 µM)
- solubility (physchem [8]; 37 °C, pH 6.5, aqueous buffer, thermodynamic from solid): 16.2 ± 1.4 µg/mL (≈ 45.1 µM)
- solubility (physchem [8]; 37 °C, pH 6.5, fassif, thermodynamic from solid): 53.8 ± 4 µg/mL (≈ 150 µM)
- solubility (physchem [8]; pH 5.8): ~110 µg/mL (≈ 306 µM)
- solubility (physchem [9]; pH 1.6, simulated gastric fluid): 141 ± 3.7 µg/mL (≈ 392 µM)
- solubility (physchem [9]; pH 3, aqueous buffer): 143 ± 2.4 µg/mL (≈ 399 µM)
- solubility (physchem [9]; pH 5, aqueous buffer): 160 ± 5.7 µg/mL (≈ 444 µM)
- solubility (physchem [9]; pH 6.5, aqueous buffer): 166 ± 6.2 µg/mL (≈ 462 µM)
- solubility (physchem [9]; pH 6.5, fassif): 308 ± 12 µg/mL (≈ 857 µM)
- water solubility [10]: 10 to 20 µg/mL
- factor of increase of equilibrium solubility (pH 5.8): ~6
- factor of increase of equilibrium solubility (pH 6.5): ~3
- A/C ratio (amorphous/crystalline solubility ratio) ([11]; HCl solution (pH 1.6)): 9.3
- amorphous/crystalline solubility (A/C) ratio ([11]; buffer solutions, overall): 8–10
- A/C ratio (amorphous/crystalline solubility ratio) ([11]; phosphate buffer (pH 3.0)): 8.1
- A/C ratio (amorphous/crystalline solubility ratio) ([11]; phosphate buffer (pH 5.0)): 9.5
- A/C ratio (amorphous/crystalline solubility ratio) ([11]; phosphate buffer (pH 6.5)): 10.2

Compound: C[C@]1(COc2ccc(N3CCC(Oc4ccc(OC(F)(F)F)cc4)CC3)cc2)Cn2cc([N+](=O)[O-])nc2O1 [delamanid]
- reduced glass transition temperature (Tg/Tm) [6]: 0.64
- Tg (glass transition temperature) ([10]; neat drug): ~43 °C
